Results as given in US5437980A, “Phenanthridium dye staining of nucleic acids in living cells” (Molecular Probes, Inc., priority 1993, dated 1995).
Entries after “also recorded” stand apart in the source; their conditions may differ.

Tests used:
[1] = tested on: trypanosome; conditions: Watkins, J. CHEM SOC. 3059 (1952); Watkins & Woolfe; cited from earlier work
[2] = tested on: DNA; assay: DNA affinity (Kp) from fluorescence enhancement versus DNA concentration, microtiter plate reader; assay type: binding; conditions: comparison in words, Table 1
Experimental: ^1 Fluorescence spectra obtained using a standard ratio of 200 μM
bp of DNA (bases of RNA) to 1 μM dye (standard solution) in a working
buffer (10 mM phosphate, 10% (v/v) ethanol, 1 mM EDTA and 100 mM NaCl), p
7.4. Fluorescence was measured in a Corning 96 U well plate and Cytofluor
sensitivity 4) as a function of DNA concentration from 0-100 μM at a
constant dye concentration of 0.5 μM.
^2 Fluorescence spectra obtained using the same method as above excep
the fluorescence was measured in a Cytofluor ™ 2300 (excitation filter
E (485/620); excitation D (620/640), and a sensitivity 4) as a function o
DNA concentration from 0-30 μM at a constant dye concentration of 0.1
^3 DNA affinity (Kp) determined by linear fitting of plots of
reciprocal fluorescence enhancement versus reciprocal DNA concentration,
as measured on a microtiter plate fluorescence reader (CytoFluor ™,

[3] = tested on: Bacillus cereus; assay: Relative rate and extent of dye uptake into living Bacillus cereus (Example 2, FIG. 1); assay type: cell-based; conditions: 2 μM dye, 23° C., 488 nm excitation, 600 nm emission
Experimental: FIG. 1. Relative Uptake of Dyes into Living Cells. Uptake of ethidium, butidium, hexidium and octidium by Bacillus cereus as described in Example 2.
Bacillus cereus is grown in nutrient broth to log phase, washed by centrifugation, and resuspended in water to a density of 5×10^6 cfu/mL (as determined in Example 1). One centimeter pathlength acrylic cuvettes containing 3 mL of cell suspension are placed in a fluorescence spectrophotometer equipped with a temperature regulated cuvette holder and magnetic stirrer. The suspensions are brought to 23° C. prior to dye addition. To a cuvette of 3 mL bacteria suspension is added 3 μL of 2 mM dye stock solutions in DMSO to give a final dye concentration of 2 μM to produce the maximum attainable fluorescence/cell at the 600 nm emission wavelength (determined as in Example 1). The peak fluorescence excitation and emission wavelengths are determined by scanning the spectrum of the dye in suspensions of Bacillus cereus incubated for 30 min with the dye. Fluorescence intensity of the suspensions is measured using 488 nm excitation and 600 nm emission wavelengths. Sampling of fluorescence is carried out at 5 or 10 Hz until the fluorescence signal appears to stabilize.

[4] = tested on: epidermal tissue of the bulb, Alium spp.; assay: Staining of plant cell tissue (Example 6); assay type: cell-based; conditions: 10 μM dye, 30 min, room temperature
Experimental: A small section of tissue from the bulb is removed with a razor blade. 0.5 mL of a 10 μM solution of the 5-DAPP/LIVE dye in distilled water is dispensed into a small glass dish. The epidermal tissue is cut into sections and placed in the dye solution. The tissue is stained for 30 min at room temperature in the dark then the tissue preparation is mounted in the presence of the dye between a coverglass and the slide.

[5] = tested on: mushroom spores; assay: Staining of mushroom spores by fluorescence microscopy (Example 4); assay type: cell-based, agaric; conditions: 10-20 μM dye, 30 min, room temperature
Experimental: Spores are rinsed from the gills on the underside of the cap of an agaric using a stream of distilled water. The spores are concentrated by centrifugation for 30 sec at 10,000 rpm in a microcentrifuge then a minimal volume of a 10-20 μM solution of the 5-DAPP/LIVE dye in distilled water is added. The suspension is incubated with the dye for 30 min at room temperature then a 15 μL aliquot of the suspension is mounted on between a coverglass and the slide for viewing in the presence of the dye. The cellular fluorescence is observed on a Zeiss Axioplan fluorescence microscope using fluorescein (long:pass emission) or rhodamine filter sets.

[6] = tested on: free-living ciliate and flagellate protozoans; assay: Staining of protozoa (Example 7); assay type: cell-based; conditions: 1 μL of 10 mM dye in 1 mL culture, 10 min, ambient temperature
Experimental: 1 μL of 10 mM the 5-DAPP/LIVE dye stock is added to 1 mL of protozoan culture. The medium is incubated for 10 min at ambient temperature. 15 μL of this preparation is mounted with dye between a coverglass and the slide. Using this procedure, the nuclei of most cells of the free-living ciliate and flagellate protozoans are stained under these conditions.

[7] = tested on: living cells; assay: Entry into / staining of living cells, general; assay type: cell-based; conditions: general summary; for entry into / staining of live cells: several types of cells
[8] = tested on: 3T3 mouse fibroblast cells; assay: Staining of nuclei in adherent cultured mammalian cells (Example 9); assay type: cell-based; conditions: 2 μM dye; for staining distribution, chloroquine-treated cells: group 1, 300 μM chloroquine; for staining distribution, control cells: group 2, no chloroquine; for color of nucleus and cytoplasm: one half hour, long-pass fluorescein filter (red with rhodamine excitation)
Experimental: 3T3 mouse fibroblast cells are grown on coverslips in calf serum-supplemented DMEM medium. The coverslips of cells are washed in HBSS+. 5-DAPP/LIVE dye solutions are prepared to a final concentration of 2 μM in DMEM without serum. One group of 3T3 cells is treated with 300 μM chloroquine (group 1). These cells and control cells (group 2) not treated with chloroquine are incubated at 37° C. for 30 min. The two groups of cells are transferred to DMEM plus 5-DAPP/LIVE. The cells are incubated in the dye-containing medium for 30 min at room temperature and are subsequently washed in HBSS+and viewed by epifluorescence microscopy using a long-pass fluorescein or a rhodamine filter set.

[9] = tested on: Saccharomyces; assay: Staining of yeast (Example 5); assay type: cell-based; conditions: 10 μM dye, 30 min, 37° C.
Experimental: Yeast cells are washed by centrifugation and then resuspended in a solution of 2% glucose and 10 mM Na-HEPES, pH 7.4 to a cell density of between 5×10^5 and 2×10^6 cells/mL optical density at 410 nm (previously calibrated with YPD agar plate colony counts). Sufficient 10 mM stock solution of the 5-DAPP/LIVE dye in DMSO is added to effect a final concentration of 10 μM of the dye in the medium. The suspension is incubated for 30 min at 37° C. then 15 μL are placed between a coverglass and the microscope slide. The cellular fluorescence is observed using fluorescein (long-pass emission) or rhodamine filter sets.

[10] = tested on: peripheral blood lymphocytes; assay: Staining of peripheral blood lymphocytes, fluorometer (Example 11); assay type: cell-based, goat; conditions: for distribution of dye into nucleus of lymphocytes: on the scale of seconds
Experimental: Peripheral blood lymphocytes (PBL) are isolated from fresh heparinized goat blood and resuspended in buffer consisting of 135 mM NaCl, 5 mM KCl, 20 mM HEPES, 1 mM CaCl2, 1 mM MgCl2, pH 7.4 (HBSS+). The cells are resuspended to 10^6 mL (as determined by direct microscopic count using a standard hemocytometer) in a final volume of 3 mL in the above buffer in a quartz cuvette. 5-DAPP/LIVE dye stocks are prepared to final concentrations of 2 mM in DMSO. 3 μL of the octidium dye stock solution is injected into the cuvette to a final concentration of 2 μM. In a fluorometer, the sample is excited at 520 nm and fluorescence emission is monitored at 600 nm over the time required for the fluorescence signal to become stable. Hexidium, butidium and ethidium bromide are injected into separate samples of PBL to determine the relative rates of uptake for these stains. The volume of dye solution added to the cuvette is corrected by a factor relating the absorbance of the dye to the absorbance of a 2 mM octidium solution.

[11] = tested on: nucleic acids; conditions: reduced ethidium, Bucana et al. (1986); cited from earlier work
[12] = tested on: gram-positive bacteria; assay: Staining of live gram-positive bacteria; assay type: cell-based; conditions: general summary
[13] = tested on: tissue culture cells; assay: Entry into / staining pattern of tissue culture cells; assay type: cell-based
Source text: In some tissue culture cells, the pattern of staining is different from that observed in plant cells or bacteria. In the former case, cells are usually loaded with a brief pulse of dye, followed by a chase of buffered saline solution. These cells show a pattern of staining first in numerous intracellular compartments; e.g. lysosomes. In addition to staining these organelles first, the dyes also undergo a spectral shift to shorter wavelengths when associated with this "early-labeled compartment." If the same cells are exposed to pulses of higher concentrations of the 5-DAPP/LIVE dyes, the staining appears in the mitochondria (tubular structures that are labeled with rhodamine 123) and then, finally, in the nucleus, where it stains the nucleoli very brightly. Nucleoli are the most prominently stained area of higher eukaryotic cells, while the nuclei and cytosol usually stain in a hazy or punctate pattern in these cells. […] In plant tissues distinct nuclei tend to label uniformly, but there is frequently significant binding of the dye to cell walls. The plant cells are usually dark except for cell walls and nuclei. The characteristic binding morphology obtained using the 5-DAPP/LIVE dyes thus makes them useful in certain circumstances for identifying the type of cell in a mixed population of cells.

[14] = tested on: DNA; assay: Relative DNA binding affinity, YOYO-1 over 5-DAPP/LIVE

SMILES: C[n+]1c(-c2ccccc2)c2cc(N)ccc2c2ccc(N)cc21 [methidium]
- trypanocidal effectiveness / therapeutic potential [1]: less effective than ethidium

SMILES: CCCC[n+]1c(-c2ccccc2)c2cc(N)ccc2c2ccc(N)cc21 [butidium]
- binding affinity versus longer chain versions [2]: higher binding affinity than the tested longer chain versions
- rate of dye loading [3]: increases with carbon chain length
- cell wall / surface staining [4]: more hazy surface staining
- fraction of spores brightly stained [5]: about 10%
- staining of spores (in words) [5]: stains all spores
- staining of nuclei of protozoans [6]: octidium which is better than butidium and ethidium
- membrane permeability [7]: limited permeability in most cells
- entry into / staining of live cells [7]: enters live cells slowly and is usually not very bright
- staining distribution, chloroquine-treated cells [8]: stained throughout, but with a greater relative intensity of staining in the nucleus
- staining distribution, control cells [8]: relatively equal staining in the nucleus and cytoplasm
- color of nucleus and cytoplasm [8]: orange
- staining distribution and intensity [9]: more punctate cytoplasmic inclusions stained
- distribution of dye into nucleus of lymphocytes [10]: virtually instantaneous

SMILES: CCN1c2cc(N)ccc2-c2ccc(N)cc2C1c1ccccc1 (centres unmarked) [dihydrophenanthridine derivative]
- nucleic acid binding [11]: does not bind to nucleic acids

SMILES: Nc1ccc2c(c1)c(-c1ccccc1)[n+](CCc1ccccc1)c1cc(N)ccc21 [phenethidium]
- membrane permeability [7]: marked enhancement of membrane permeability in all systems
- entry into / staining of live cells [7]: facilitates entry of the 5-DAPP dye into living cells, but at a rate that is typically slower than derivatives in which the substituent is a C4 to C8 alkyl group
- entry into gram positive bacteria [12]: enters gram positive bacteria
- time to enter tissue culture cells [13]: ≥ 1 h

SMILES: CCCCCCCC[n+]1c(-c2ccccc2)c2cc(N)ccc2c2ccc(N)cc21 [octidium]
- rate of dye loading [3]: increases with carbon chain length
- cell wall / surface staining [4]: more hazy surface staining occurs with ethidium and butidium than with hexidium or octidium
- nuclear staining / staining [4]: stains identically to hexidium
- fraction of spores brightly stained [5]: about 10%
- staining of nuclei of protozoans [6]: better than butidium and ethidium
- membrane permeability [7]: marked enhancement of membrane permeability in all systems
- entry into / staining of live cells [7]: enters cell membranes quickly; also recorded: becomes bright with continued incubation
- staining distribution, chloroquine-treated cells [8]: stained throughout, but with a greater relative intensity of staining in the nucleus
- staining distribution, control cells [8]: relatively equal staining in the nucleus and cytoplasm
- color of nucleus and cytoplasm [8]: orange
- fraction of yeast with stained nuclei [9]: less than 100%
- staining distribution and intensity [9]: somewhat less bright than hexidium staining; also recorded: markedly less cytoplasmic staining than any of the other forms
- distribution of dye into nucleus of lymphocytes [10]: virtually instantaneous

SMILES: C[n+]1c(C=C2C=CN(CCC[N+](C)(C)CCC[N+](C)(C)CCCN3C=CC(=Cc4oc5ccccc5[n+]4C)c4ccccc43)c3ccccc32)oc2ccccc21 [YOYO-1, reference compound]
- DNA binding affinity of YOYO-1 over 5-DAPP/LIVE [14]: hundred
- membrane permeability [7]: virtual impermeability

SMILES: CC[n+]1c(-c2ccccc2)c2cc(N)ccc2c2ccc(N)cc21 [ethidium bromide, reference compound]
- increase in fluorescence over time ([10]; 2 μM dye, 520 nm excitation, 600 nm emission): essentially no increase in fluorescence signal over time
